Values after ≈ are worked out from the molar mass of the structure shown.
Columns and labels:
[1] = tested on: Staph. aureus Russell; experiment: Synergistic activity in vitro with amoxycillin; type: cell-based, Staphylococcus aureus; design: Synergistic activity in vitro: unit not given beside the values; conditions: for Synergistic activity in vitro: Staph. aureus Russell
[2] = tested on: E. coli JT 39; experiment: Synergistic activity in vitro with amoxycillin; type: cell-based, Escherichia coli; conditions: for Synergistic activity in vitro: E. coli JT 39
[3] = tested on: Klebsiella aerogenes E70; experiment: Synergistic activity in vitro with amoxycillin; type: cell-based; design: Synergistic activity in vitro: unit not given beside the values; conditions: for Synergistic activity in vitro: Klebsiella aerogenes E70
[4] = tested on: K. aerogenes E70; experiment: Antibacterial activity of quaternary amine derivatives alone; type: cell-based; conditions: Klebsiella aerogenes, compound alone
[5] = tested on: S. aureus Russell; experiment: as above; type: cell-based; conditions: Staphylococcus aureus, compound alone
[6] = tested on: E. coli JT39; experiment: as above; type: cell-based; conditions: Escherichia coli, compound alone
[7] = amoxycillin with inhibitor, Inhibitor Conc 1
[8] = amoxycillin with inhibitor, Inhibitor Conc 5
[9] = amoxycillin alone, no inhibitor

| SMILES | Synergistic activity in vitro [1, 7] | Synergistic activity in vitro [2, 7] | Synergistic activity in vitro [2, 8] | Synergistic activity in vitro [3, 7] | Synergistic activity in vitro [3, 8] | MIC [4] [µg/mL] | MIC [5] [µg/mL] | MIC [6] [µg/mL] | also measured |
| --- | --- | --- | --- | --- | --- | --- | --- | --- | --- |
| C[N+](C)(C/C=C1\O[C@@H]2CC(=O)N2[C@H]1C(=O)[O-])Cc1ccccc1 [Example No 1, 9-(N-Benzyl-N,N-dimethyl)ammonio-9-deoxyclavulanate] | 0.62 | 8 | 2 | 6.2 | 3.1 | – | – | – | Synergistic activity in vitro [1, 8]: 0.08 |
| CC[N+](C)(C)C/C=C1\O[C@@H]2CC(=O)N2[C@H]1C(=O)[O-] [Example No. 5, 9-(N,N-dimethyl-N-ethyl)ammonio-9-deoxyclavulanate] | – | – | – | – | – | 250 (≈ 983 µM) | 31 (≈ 122 µM) | 62 (≈ 244 µM) | – |
| CC[N+](CC)(CC)C/C=C1\O[C@@H]2CC(=O)N2[C@H]1C(=O)[O-] [Example No. 6, 9-N,N,N-triethylammonio-9-deoxyclavulanate] | – | – | – | – | – | 500 (≈ 1770 µM) | 31 (≈ 110 µM) | 125 (≈ 443 µM) | – |
| C[N+](C)(C)C/C=C1\O[C@@H]2CC(=O)N2[C@H]1C(=O)[O-] [Example No. 7, 9-N,N,N,-trimethylammonio-9-deoxyclavulanate] | – | – | – | – | – | 62.5 (≈ 260 µM) | 4 (≈ 16.6 µM) | 16 (≈ 66.6 µM) | – |
| CC[N+](C)(C/C=C1\O[C@@H]2CC(=O)N2[C@H]1C(=O)[O-])Cc1ccccc1 (some centres unmarked) [Example No 2, 9-(N-Benzyl-N-ethvl-N-methyl)ammonio-9-deoxyclavulanate] | 0.16 | 16 | 4 | 12.5 | 3.1 | – | – | – | – |
| CC1(C)S[C@@H]2[C@H](NC(=O)[C@H](N)c3ccc(O)cc3)C(=O)N2[C@H]1C(=O)O [Amoxycillin, reference compound] | – | – | – | – | – | – | – | – | MIC µg/ml amoxycillin ([1]; S. aureus Russell, amoxycillin alone): 500 µg/mL; Synergistic activity in vitro [1, 9]: 1000; MIC µg/ml amoxycillin ([2]; E. coli JT39, amoxycillin alone): 2000 µg/mL; Synergistic activity in vitro [2, 9]: ≥2000; MIC µg/ml amoxycillin ([3]; K. aerogenes E70, amoxycillin alone): 1000 µg/mL; Synergistic activity in vitro [3, 9]: 500 |

Source: EP0062407A1, “Therapeutic compounds containing beta-lactams” (BEECHAM GROUP PLC, priority 1981, dated 1982)
